These are literature values, as cited in patent US20070167517A1, “Stabilized derivatives of ascorbic aicd” (Tagra Biotechnologies Ltd., priority 2003, published 2007).

The conditions of data set [1]: standard solutions and topical formulations, RP-HPLC.
The conditions of data set [2]: in the human.

The structures appear in SMILES notation.

Regarding `CCCCCCCCCCCCCCCC(=O)OC[C@H](O)[C@H]1OC(=O)C(O)=C1O` [ascorbyl palmitate, 6-ascorbyl palmitate], the stability result in data set [1] is on record as “did not prevent hydrolysis of the molecule”.
As to `O=C1O[C@H]([C@@H](O)CO)C(O)=C1O` [ascorbic acid], the half-life entry in data set [2] is recorded as “about 20 days”.
`O=C1O[C@H]([C@@H](O)CO)C(O)=C1OP(=O)([O-])[O-].[Mg+2]` [magnesium ascorbyl phosphate, magnesium L-ascorbic acid-2-phosphate]: the stability result in data set [1] is “very stable”.
